# Test results: patent US9796700B2 (Celgene CAR LLC, priority 2013, dated 2017)
# Like-named read-outs stand apart in the source and are kept apart here.
# Key:
# Erk1 = Erk1 (Homo sapiens (Human), UniProt P27361); experiment: Protein Mass Modification Assay (intact protein MALDI); assay type: binding
# Outline: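 Percent covalent modification comes from the intact-protein MALDI centroid mass shift, treated versus control, divided by compound MW. Before analysis, human Erk1 was exposed to compound at 10-fold excess over protein for 60 min at room temperature.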
# [1] = tested on: ERK1 phosphorylation of its substrate RSK in HT29 cells; experiment: pRSK MSD Assay in HT29 cells; assay type: cell-based
# Description: The protocol below describes an assay to measure the kinase activity of ERK1 to phosphorylate its substrate, RSK, in the presence of a test compound. This experiment was conducted using a Mesoscale Discovery plate. The day before the assay, HT29 cells were split and plated at 50,000 cells/well in complete growth media. After allowing cells to adhere, the media was removed and replaced with media containing 0.1% FBS and incubated overnight. Blank MDS plates were coated with 25 μl/well RSK capture antibody and incubated at 4° C. overnight. The next day, the media was removed and replaced with 100 μl of media containing a test compound and incubated for 120 minutes at 37° C. The media was removed and replaced with 55 μl of well lysis buffer with protease and phosphatase inhibitors provided in the kit, followed by incubation at 4° C. for 30 minutes. 50 μl of lysate was transferred to a blocked MSD plate, followed by incubation at room temperature for 2 hours under constant shaking. The plate was washed 3 times with MSD wash buffer (cat#R617TX), and 25 μl/well phospho-RSK (pRSK) detection antibody was added with an appropriate Sulfo-tagged anti-species detection antibody diluted in 1% BSA in MSD wash buffer. This mixture was incubated for 1 hour at room temperature under constant shaking. The plate was washed 3 times, and 150 μl 1×MSD read buffer was added, followed by signal detection in an MSD plate reader.
# MEK1 activated ERK1 = MEK1 activated ERK1 (Homo sapiens (Human), UniProt P27361); experiment: Omnia continuous-read kinase assay for potency against MEK1 activated ERK1; assay type: biochemical; settings: MEK1 activated ERK1, WT, ATP at KM
# Outline: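 Apparent IC50 came from initial reaction slopes (RFU vs time) plotted against log inhibitor with a variable-slope fit. Reactions were started with ERK1 (4 nM final) added to 50 μM ATP, roughly at its appKM, and 10 μM Sox-conjugated ST17 peptide in 20 mM Tris pH 7.5, 5 mM MgCl2. Fluorescence was monitored every 71 seconds.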
# [2] = Homo sapiens, HT-29, HT29 cells, read-out: ERK1 PRSK MSD HT29 EC50
# [3] = HT29 cells, read-out: ERK1 PRSK MSD HT29 EC50
# [4] = Homo sapiens, HT-29, read-out: ERK1 PRSK MSD HT29 EC50 (nM)
# Chain of MEK1 activated ERK1 (P27361 whole entry): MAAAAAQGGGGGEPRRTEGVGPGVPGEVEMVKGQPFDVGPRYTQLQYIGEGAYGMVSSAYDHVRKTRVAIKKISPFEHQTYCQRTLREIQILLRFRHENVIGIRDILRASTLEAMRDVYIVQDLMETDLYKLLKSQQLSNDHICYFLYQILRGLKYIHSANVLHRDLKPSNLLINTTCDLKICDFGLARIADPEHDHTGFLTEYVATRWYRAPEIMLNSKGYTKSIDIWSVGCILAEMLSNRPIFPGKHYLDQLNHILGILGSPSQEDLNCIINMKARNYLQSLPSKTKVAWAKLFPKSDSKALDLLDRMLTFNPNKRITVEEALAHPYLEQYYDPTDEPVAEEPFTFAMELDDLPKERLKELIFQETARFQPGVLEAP
# Chain of Erk1 (P27361 whole entry, looked up): as the sequence (P27361 whole entry) above
Compound,ERK1 Mass Mod (%) (Erk1),"EC50 [1, 2] [nM]","EC50 [1, 3] [nM]",IC50 (MEK1 activated ERK1) [nM],"EC50 [1, 4] [nM]"
"C=CC(=O)Nc1ccccc1Nc1nc(N[C@@H]2CCC[C@H](C(=O)O)C2)ncc1Cl (racemic) [Compound I-133, Rac-3-((4-((2-acrylamidophenyl)amino)-5-chloropyrimidin-2-yl)amino)-cis-cyclohexanecarboxylic acid]",E (provided a mass modification of ≧70%),> 1000,–,–,–
"C=CC(=O)Nc1ccccc1Nc1nc(N[C@H]2CC[C@H](O)CC2)ncc1C(F)(F)F [Compound I-1, Trans-N-(2-((2-((4-hydroxycyclohexyl)amino)-5-(trifluoromethyl)pyrimidin-4-yl)amino)phenyl)acrylamide]",G (proived a mass modification ≦30%),–,101 to 500,–,–
"C=CC(=O)Nc1ccccc1Nc1nc(N[C@H]2CC[C@H](C(N)=O)CC2)ncc1C(F)(F)F [Compound I-16, 4-((4-((2-acrylamidophenyl)amino)-5-(trifluoromethyl)pyrimidin-2-yl)amino) -trans-cyclohexanecarboxamide]",E (provided a mass modification of ≧70%),501 to 999,–,–,–
"C=CC(=O)Nc1ccccc1Nc1nc(NC2CCC(=O)CC2)ncc1C(F)(F)F [Compound I-23, N-(2-((2-((4-Oxocyclohexyl)amino)-5-(trifluoromethyl)pyrimidin-4-yl)amino)phenyl)acrylamide]",E (provided a mass modification of ≧70%),101 to 500,–,< 100,–
"C=CC(=O)Nc1ccccc1Nc1nc(Nc2cncc(C(N)=O)c2)ncc1C(F)(F)F [Compound I-63, 5-((4-((2-Acrylamidophenyl)amino)-5-(trifluoromethyl)pyrimidin-2-yl)amino)nicotinamide]",E (provided a mass modification of ≧70%),101 to 500,–,–,–
"C=CC(=O)Nc1cc(C)ccc1Nc1nc(Nc2cc(C(C)=O)ccc2C)ncc1C(F)(F)F [Compound I-84, N-(2-((2-((5-Acetyl-2-methylphenyl)amino)-5-(trifluoromethyl)pyrimidin-4-yl)amino)-5-methylphenyl)acrylamide]",E (key: E: provided a mass modification of ≧70%; F: provided a mass modification of 31-69%; G: proived a mass modification ≦30%),–,–,–,101 to 500
"C=C(C)S(=O)(=O)Nc1cc(F)ccc1Nc1nc(Nc2cc(C(N)=O)ccc2C)ncc1C(F)(F)F [Compound I-87, 3-((4-((4-Fluoro-2-(1-methylvinylsulfonamido)phenyl)amino)-5-(trifluoromethyl)pyrimidin-2-yl)amino)-4-methylbenzamide]",G (proived a mass modification ≦30%),101 to 500,–,–,–
C=CC(=O)Nc1ccccc1Nc1nc(Nc2cc(OC)nc(N3CCN(C(C)=O)CC3)c2)ncc1C(F)(F)F [Compound I-92],E (provided a mass modification of ≧70%),< 100,–,–,–
C=CC(=O)Nc1cc(C)ccc1Nc1nc(Nc2cc(OC)nc(OC)c2)ncc1C(F)(F)F [Compound I-96],E (key: E: provided a mass modification of ≧70%; F: provided a mass modification of 31-69%; G: proived a mass modification ≦30%),–,–,–,< 100
C=CC(=O)Nc1ccccc1Nc1nc(N[C@H]2CC[C@H](O)CC2)ncc1Cl [Compound I-101],E (provided a mass modification of ≧70%),101 to 500,–,–,–
"C=CC(=O)Nc1ccccc1Nc1nc(N[C@H]2CC[C@@H](O)CC2)ncc1C(F)(F)F [Compound I-109, N-(2-((2-(cis-(4-hydroxycyclohexyl)amino)-5-(trifluoromethyl)pyrimidin-4-yl)amino)phenyl) acrylamide]",E (provided a mass modification of ≧70%),–,> 1000,–,–
"C=CC(=O)Nc1cc(C)ccc1Nc1nc(N[C@H]2CCN(S(=O)(=O)C=C)C2)ncc1C(F)(F)F [Compound I-279, (S)—N-(5-Methyl-2-((5-(trifluoromethyl)-2-((1-(vinylsulfonyl)pyrrolidin-3-yl)amino)pyrimidin-4-yl)amino)phenyl)acrylamide]",E (provided a mass modification of ≧70%),> 1000,–,–,–
"CCC(=O)Nc1ccccc1Nc1nc(Nc2ccc(N(CC)C(C)=O)cc2C#N)ncc1Cl [Compound I-316, N-(2-((5-chloro-2-((2-cyano-4-(N-ethylacetamido)phenyl)amino)pyrimidin-4-yl)amino)phenyl)propionamide]",–,> 1000,–,> 1000,–
"C=CC(=O)Nc1cc(C)ccc1Nc1nc(Nc2cc(OC)nc(N3CC(O)C3)c2)ncc1C(F)(F)F [Compound I-328, N-(2-((2-((2-(3-hydroxyazetidin-1-yl)-6-methoxypyridin-4-yl)amino)-5-(trifluoromethyl)pyrimidin-4-yl)amino)-5-methylphenyl)acrylamide]",E (provided a mass modification of ≧70%),–,–,< 100,–
"C=CC(=O)Nc1cc(C)ccc1Nc1nc(Nc2cc(OC)nc(N3CCC3)c2)ncc1C(F)(F)F [Compound I-329, N-(2-((2-((2-(azetidin-1-yl)-6-methoxypyridin-4-yl)amino)-5-(trifluoromethyl)pyrimidin-4-yl)amino)-5-methylphenyl)acrylamide]",E (provided a mass modification of ≧70%),–,–,> 1000,–
"C=CC(=O)Nc1cc(C)ccc1Nc1nc(Nc2cc(OC)nc(N3CCC(O)CC3)c2)ncc1C(F)(F)F [Compound I-332, N-(2-((2-((2-(4-hydroxypiperidin-1-yl)-6-methoxypyridin-4-yl)amino)-5-(trifluoromethyl)pyrimidin-4-yl)amino)-5-methylphenyl)acrylamide]",E (provided a mass modification of ≧70%),–,–,> 1000,–
"C=CC(=O)Nc1cc(OC)ccc1Nc1nc(Nc2cc(OC)nc(N3CCN(C)CC3)c2)ncc1C(F)(F)F [Compound I-334, N-(5-methoxy-2-((2-((2-methoxy-6-(4-methylpiperazin-1-yl)pyridin-4-yl)amino)-5-(trifluoromethyl)pyrimidin-4-yl)amino)phenyl)acrylamide]",E (provided a mass modification of ≧70%),–,–,< 100,–
"C=CC(=O)Nc1cc(C)ccc1Nc1nc(Nc2cnnc(OC)c2)ncc1C(F)(F)F [Compound I-335, N-(2-((2-((6-methoxypyridazin-4-yl)amino)-5-(trifluoromethyl)pyrimidin-4-yl)amino)-5-methylphenyl)acrylamide]",E (provided a mass modification of ≧70%),–,–,> 1000,–
"C=CC(=O)Nc1cc(C)ccc1Nc1nc(Nc2nc(OC)ccc2Cl)ncc1C(F)(F)F [Compound I-360, N-(2-((2-((3-chloro-6-methoxypyridin-2-yl)amino)-5-(trifluoromethyl)pyrimidin-4-yl)amino)-5-methylphenyl)acrylamide]",E (provided a mass modification of ≧70%),–,–,> 1000,–
"C=CC(=O)Nc1cc(C)ccc1Nc1nc(Nc2cc(OC)cnc2Cl)ncc1C(F)(F)F [Compound I-361, N-(2-((2-((2-chloro-5-methoxypyridin-3-yl)amino)-5-(trifluoromethyl)pyrimidin-4-yl)amino)-5-methylphenyl)acrylamide]",E (provided a mass modification of ≧70%),–,–,< 100,–
"C#CCOc1cc(C)c(Nc2ncc(C(F)(F)F)c(Nc3ccc(C)cc3NC(=O)C=C)n2)cc1C(N)=O [Compound I-362, 5-((4-((2-acrylamido-4-methylphenyl)amino)-5-(trifluoromethyl)pyrimidin-2-yl)amino)-4-methyl-2-(prop-2-yn-1-yloxy)benzamide]",E (provided a mass modification of ≧70%),–,–,> 1000,–
"C=CC(=O)Nc1cc(C)ccc1Nc1nc(Nc2nc(O)ncc2Cl)ncc1C(F)(F)F [Compound I-363, N-(2-((2-((5-chloro-2-hydroxypyrimidin-4-yl)amino)-5-(trifluoromethyl)pyrimidin-4-yl)amino)-5-methylphenyl)acrylamide]",E (provided a mass modification of ≧70%),–,–,> 1000,–
"C=CC(=O)Nc1cc(C)ccc1Nc1nc(Nc2nc(O)ncc2C)ncc1C(F)(F)F [Compound I-364, N-(2-((2-((2-hydroxy-5-methylpyrimidin-4-yl)amino)-5-(trifluoromethyl)pyrimidin-4-yl)amino)-5-methylphenyl)acrylamide]",E (provided a mass modification of ≧70%),–,–,< 100,–
"C=CC(=O)Nc1cc(C)ccc1Nc1nc(Nc2cc(O)ncc2C)ncc1C(F)(F)F [Compound I-365, N-(2-((2-((2-hydroxy-5-methylpyridin-4-yl)amino)-5-(trifluoromethyl)pyrimidin-4-yl)amino)-5-methylphenyl)acrylamide]",E (provided a mass modification of ≧70%),–,–,> 1000,–
